Source: PubChem BioAssay (NCI)
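All cell lines were grown in 96-well plates and treated with compound for 48 hours. At the TGI there is no net growth.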

Key:
Experiment in all cases: NCI-60 cell line screen, 48 h
[1] = test system: MALME-3M melanoma
[2] = test system: 786-0 renal
[3] = test system: UACC-257 melanoma
[4] = test system: NCI-H226 lung
[5] = test system: OVCAR-8 ovarian
[6] = test system: HOP-62 NSCLC
[7] = test system: SW-620 colon
[8] = test system: KM20L2 colon
[9] = test system: NCI-H460 lung
[10] = test system: SR leukemia
[11] = test system: MOLT-4 leukemia
[12] = test system: KM12 colon
[13] = test system: SK-MEL-5 melanoma
[14] = test system: LOX IMVI melanoma
[15] = test system: IGROV1 ovarian
[16] = test system: RXF 393 renal
[17] = test system: HL-60(TB) leukemia
[18] = test system: SN12C renal
[19] = test system: DMS 114 small cell lung
[20] = test system: HOP-92 NSCLC
[21] = test system: NCI-H23 lung
[22] = test system: M19-MEL melanoma
[23] = test system: LXFL 529 NSCLC
[24] = test system: CCRF-CEM leukemia
[25] = test system: OVCAR-3 ovarian
[26] = test system: NCI-H522 lung
[27] = test system: HOP-18 NSCLC
[28] = test system: SF-295 CNS
[29] = test system: SK-MEL-28 melanoma
[30] = test system: COLO 205 colon
[31] = test system: SF-268 CNS
[32] = test system: HT29 colon
[33] = test system: DMS 273 small cell lung
[34] = test system: SK-MEL-2 melanoma
[35] = test system: SK-OV-3 ovarian
[36] = test system: DLD-1 colon
[37] = test system: UO-31 renal
[38] = test system: SF-539 CNS
[39] = test system: HCT-116 colon
[40] = test system: RPMI-8226 leukemia
[41] = test system: UACC-62 melanoma
[42] = test system: A549 NSCLC
[43] = test system: ACHN renal
[44] = test system: CAKI-1 renal
[45] = test system: HCT-15 colon
[46] = test system: SNB-78 CNS
[47] = test system: OVCAR-5 ovarian
[48] = test system: U251 CNS
[49] = test system: M14 melanoma
[50] = test system: OVCAR-4 ovarian
[51] = test system: SNB-75 CNS
[52] = test system: K-562 leukemia
[53] = test system: TK-10 renal
[54] = test system: T-47D breast
[55] = test system: NCI/ADR-RES ovarian
[56] = test system: PC-3 prostate
[57] = test system: EKVX NSCLC
[58] = test system: MDA-MB-435
[59] = test system: BT-549 breast
[60] = test system: DU-145 prostate
[61] = test system: MCF7 breast
[62] = test system: A498 renal
[63] = test system: HS 578T breast
[64] = test system: SNB-19 CNS
[65] = test system: MDA-N
[66] = test system: HCC-2998 colon
[67] = test system: MDA-MB-231 breast
[68] = test system: XF 498 CNS

SMILES: CC(=O)Nc1ccc(-c2nnc(SCC(=O)Nc3ccc(C)cc3)o2)cc1
- TGI [1]: 30.8 µM
- TGI [2]: 33.4 µM
- TGI [3]: 42 µM
- TGI [4]: 52.4 µM
- TGI [5]: 70.8 µM
- TGI [6]: > 100 µM
- TGI [7]: 33.3 µM
- TGI [8]: 36.5 µM
- TGI [9]: 42.7 µM
- TGI [10]: 98.2 µM
- TGI [11]: > 100 µM
- TGI [12]: 37.8 µM
- TGI [13]: 27.8 µM
- TGI [14]: 31.8 µM
- TGI [15]: 28.6 µM
- TGI [16]: 33.2 µM
- TGI [17]: 64.4 µM
- TGI [18]: 30 µM
- TGI [19]: 28.2 µM
- TGI [20]: 33.4 µM
- TGI [21]: 29.6 µM
- TGI [22]: 32.9 µM
- TGI [23]: 30.5 µM
- TGI [24]: > 100 µM
- TGI [25]: 37.2 µM
- TGI [26]: 33 µM
- TGI [27]: 31.3 µM
- TGI [28]: 35.5 µM
- TGI [29]: 31.4 µM
- TGI [30]: 31.6 µM
- TGI [31]: 44.2 µM
- TGI [32]: 31.1 µM
- TGI [33]: 30.1 µM
- TGI [34]: 34.4 µM
- TGI [35]: > 100 µM
- TGI [36]: 30.2 µM
- TGI [37]: > 100 µM
- TGI [38]: 27.3 µM
- TGI [39]: 29.1 µM
- TGI [40]: 74.7 µM
- TGI [41]: 30.7 µM
- TGI [42]: > 100 µM
- TGI [43]: 70.3 µM
- TGI [44]: 24.9 µM
- TGI [45]: 30 µM
- TGI [46]: 34.7 µM
- TGI [47]: 39.8 µM
- TGI [48]: 33.6 µM
- TGI [49]: 29.8 µM
- TGI [50]: 32.6 µM
- TGI [51]: 58.6 µM
- TGI [52]: > 100 µM
- TGI [53]: 53.6 µM

SMILES: COC(=O)C1=C(C)NC(C)=C([N+](=O)[O-])C1c1cccc(NO)c1 (centres undefined)
- TGI [1]: 22.9 µM
- TGI [2]: > 87.9 µM
- TGI [3]: 28.1 µM
- TGI [4]: > 47.3 µM
- TGI [5]: 37.5 µM
- TGI [6]: > 100 µM
- TGI [7]: 16.5 µM
- TGI [9]: 17.5 µM
- TGI [10]: 8.93 µM
- TGI [54]: > 52.4 µM
- TGI [11]: > 26 µM
- TGI [12]: 6.85 µM
- TGI [55]: 46.6 µM
- TGI [13]: 15 µM
- TGI [14]: 15.5 µM
- TGI [15]: 22.9 µM
- TGI [16]: > 85.4 µM
- TGI [17]: 5.57 µM
- TGI [18]: > 30.8 µM
- TGI [56]: 26.1 µM
- TGI [57]: > 61.5 µM
- TGI [20]: 28 µM
- TGI [21]: > 100 µM
- TGI [24]: > 22.9 µM
- TGI [25]: 19.5 µM
- TGI [26]: 13.9 µM
- TGI [28]: 23.1 µM
- TGI [29]: > 69.4 µM
- TGI [30]: 4.74 µM
- TGI [31]: > 100 µM
- TGI [32]: 9.79 µM
- TGI [58]: 5.3 µM
- TGI [34]: > 43.8 µM
- TGI [35]: > 85.6 µM
- TGI [59]: 16.4 µM
- TGI [37]: 24.1 µM
- TGI [38]: 37 µM
- TGI [60]: > 100 µM
- TGI [61]: 27.2 µM
- TGI [39]: 10.5 µM
- TGI [62]: 70 µM
- TGI [40]: 12.6 µM
- TGI [41]: > 31.6 µM
- TGI [42]: > 89.6 µM
- TGI [43]: > 44.9 µM
- TGI [44]: > 52.7 µM
- TGI [45]: 9.77 µM
- TGI [63]: 38.6 µM
- TGI [47]: > 100 µM
- TGI [48]: > 100 µM
- TGI [64]: > 100 µM
- TGI [65]: 4.14 µM
- TGI [49]: 12.3 µM
- TGI [50]: 40.6 µM
- TGI [51]: > 100 µM
- TGI [52]: > 27.1 µM
- TGI [53]: 26 µM
- TGI [66]: 16.8 µM
- TGI [67]: 17 µM

SMILES: COc1ccc2c(c1)CC[C@@H]1C2CC[C@]2(C)C(=O)NC(=O)CC12 (some centres undefined)
- TGI [1]: > 100 µM
- TGI [2]: > 100 µM
- TGI [3]: > 100 µM
- TGI [4]: > 100 µM
- TGI [5]: > 100 µM
- TGI [6]: > 100 µM
- TGI [7]: > 100 µM
- TGI [8]: > 100 µM
- TGI [9]: > 100 µM
- TGI [11]: > 100 µM
- TGI [12]: > 100 µM
- TGI [13]: > 100 µM
- TGI [14]: > 100 µM
- TGI [15]: > 100 µM
- TGI [17]: > 100 µM
- TGI [18]: > 100 µM
- TGI [57]: > 100 µM
- TGI [20]: > 100 µM
- TGI [21]: > 100 µM
- TGI [22]: > 100 µM
- TGI [23]: > 100 µM
- TGI [24]: > 100 µM
- TGI [25]: > 100 µM
- TGI [26]: > 100 µM
- TGI [27]: > 100 µM
- TGI [28]: > 100 µM
- TGI [30]: > 100 µM
- TGI [31]: > 100 µM
- TGI [32]: > 100 µM
- TGI [33]: > 100 µM
- TGI [34]: > 100 µM
- TGI [35]: > 100 µM
- TGI [36]: > 100 µM
- TGI [37]: > 100 µM
- TGI [38]: > 100 µM
- TGI [39]: > 100 µM
- TGI [62]: > 100 µM
- TGI [40]: > 100 µM
- TGI [41]: > 100 µM
- TGI [68]: > 100 µM
- TGI [42]: > 100 µM
- TGI [43]: > 100 µM
- TGI [44]: > 100 µM
- TGI [45]: > 100 µM
- TGI [46]: > 100 µM
- TGI [47]: > 100 µM
- TGI [48]: > 100 µM
- TGI [64]: > 100 µM
- TGI [49]: > 100 µM
- TGI [52]: > 100 µM
- TGI [53]: > 100 µM
- TGI [66]: > 100 µM
